For the assay, the system named is HeLa viability, CellTiter-Glo luminescence, 24 h. Kind of assay: viability loss in HeLa cells – cytotoxicity control for MgcRacGAP inhibitor project, dose response (AID 624300).

`C#CCOCCOCCOCCNc1nc(N2CCN(C(=O)CCCCCCCCCCNC(=O)[C@@H](CCSC)n3cc(CCO)nn3)CC2)nc(N2CCN(C(=O)CCCCCCCCCCNC(=O)[C@H](CO)n3cc(CCCCCN)nn3)CC2)n1`: the CC50 – broadly, the concentration that lowers cell viability or growth by half – was 85.3 µM.

The record behind these values is PubChem BioAssay AID624300 (Southern Research Specialized Biocontainment Screening …, 2012).
